Assay results taken from patent US20230279020A9, “CARM1 INHIBITORS AND USES THEREOF” (Epizyme, Inc., priority 2013, published 2023).

Target: Human CARM1 (PRMT4) (Homo sapiens (Human), UniProt Q86X55)
Experiment: CARM1 enzyme assay on peptide substrate (3H-SAM Flashplate)
Settings: Biochemical potencies, classification codes; read-out: Biochem IC50

Human CARM1 (PRMT4), sequence (Q86X55 other isoform, or with tags, fused parts or gaps isoform Q86X55-1): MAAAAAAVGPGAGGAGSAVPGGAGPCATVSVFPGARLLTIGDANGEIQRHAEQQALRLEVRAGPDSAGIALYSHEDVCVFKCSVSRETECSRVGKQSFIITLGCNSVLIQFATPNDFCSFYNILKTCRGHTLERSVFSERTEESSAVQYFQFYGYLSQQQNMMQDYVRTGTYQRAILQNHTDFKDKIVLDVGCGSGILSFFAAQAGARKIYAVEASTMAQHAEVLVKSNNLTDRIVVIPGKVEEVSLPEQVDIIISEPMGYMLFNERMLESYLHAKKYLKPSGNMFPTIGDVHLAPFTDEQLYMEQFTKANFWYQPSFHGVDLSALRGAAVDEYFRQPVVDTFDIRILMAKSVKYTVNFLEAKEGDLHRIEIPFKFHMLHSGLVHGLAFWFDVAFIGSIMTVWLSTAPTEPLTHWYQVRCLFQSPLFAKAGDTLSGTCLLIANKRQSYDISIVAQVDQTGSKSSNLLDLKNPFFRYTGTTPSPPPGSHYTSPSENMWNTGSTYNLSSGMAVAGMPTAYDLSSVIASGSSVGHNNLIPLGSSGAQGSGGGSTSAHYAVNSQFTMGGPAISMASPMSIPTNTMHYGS

IC50 | SMILES
< 100 nM | CNC[C@@H](O)COc1ccc(Cl)c(-c2nc(N[C@H]3CCN(C)C[C@H]3F)c(Cl)c(-c3c(C)noc3C)n2)c1 [Example 208-3]
< 100 nM | CNCC(O)COc1cccc(-c2nc(-c3c(C)noc3C)c(C)c(N3CCO[C@@H](C)C3)n2)c1 (stereo partly drawn) [Example 209-1a]
< 100 nM | CNC[C@@H](O)COc1ccc(Cl)c(-c2nc(N[C@H]3COC[C@@H]3O)c(C)c(-c3c(C)noc3C)n2)c1 [Example 209-3]
< 100 nM | CNCC(O)COc1cccc(-c2nc(Nc3cn(C)cn3)c(C)c(-c3c(C)noc3C)n2)c1 (stereo not drawn) [Example 210-1a]
< 100 nM | CNC[C@@H](O)COc1ccc(Cl)c(-c2nc(N[C@@H]3CCN(C)C[C@@H]3F)c(Cl)c(-c3c(C)noc3C)n2)c1 [Example 210-3]
< 100 nM | CNCC(O)COc1cccc(-c2nc(-c3c(C)noc3C)c(C)c(N3CCO[C@H](C)C3)n2)c1 (stereo partly drawn) [Example 211-1a]
< 100 nM | CNC[C@@H](O)COc1ccc(Cl)c(-c2nc(N[C@@H]3CCN(C4CC4)C[C@@H]3F)c(Cl)c(-c3c(C)noc3C)n2)c1 [Example 211-3]
< 100 nM | CNCC(O)COc1cccc(-c2nc(NC3C4COCC43)c(C)c(-c3c(C)noc3C)n2)c1 (stereo not drawn) [Example 212-1a]
< 100 nM | CNC[C@@H](O)COc1ccc(Cl)c(-c2nc(N[C@H]3CC[C@@H](OC)C3)c(C)c(-c3c(C)noc3C)n2)c1 [Example 212-3]
< 100 nM | CNC[C@@H](O)COc1ccc(Cl)c(-c2nc(-c3c(C)noc3C)c(C)c(N(C)[C@H]3CC[C@@H](OC)C3)n2)c1 [Example 213-3]
< 100 nM | CNC[C@@H](O)COc1ccc(Cl)c(-c2nc(-c3c(C)noc3C)c(Cl)c(N3Cc4ccncc4C3)n2)c1 [Example 214-3]
< 100 nM | CNCC(O)COc1cccc(-c2nc(Nc3nncs3)c(C)c(-c3c(C)noc3C)n2)c1 (stereo not drawn) [Example 215-1a]
< 100 nM | CNC[C@@H](O)COc1ccc(Cl)c(-c2nc(NC[C@H]3CCCO3)c(Cl)c(-c3c(C)noc3C)n2)c1 [Example 215-3]
< 100 nM | CNCC(O)COc1cccc(-c2nc(NC3CCCN(C(=O)N(C)C)C3)c(C)c(-c3c(C)noc3C)n2)c1 (stereo not drawn) [Example 216-1a]
< 100 nM | CNC[C@@H](O)COc1ccc(Cl)c(-c2nc(N[C@H]3C[C@@H](OC)C3)c(Cl)c(-c3c(C)noc3C)n2)c1 [Example 216-3]
< 100 nM | CNCC(O)COc1cccc(-c2nc(Nc3nnc(C4CC4)s3)c(C)c(-c3c(C)noc3C)n2)c1 (stereo not drawn) [Example 217-1a]
< 100 nM | CNC[C@@H](O)COc1ccc(Cl)c(-c2nc(N[C@H]3C[C@H](OC)C3)c(Cl)c(-c3c(C)noc3C)n2)c1 [Example 217-3]
< 100 nM | CNCC(O)COc1cccc(-c2nc(N[C@H]3CCC[C@H]3O)c(C)c(-c3c(C)noc3C)n2)c1 (stereo partly drawn) [Example 218-1a]
< 100 nM | CNCC(O)COc1ccc(Cl)c(-c2nc(NC3CC4(CC4)C3)c(C)c(-c3c(C)noc3C)n2)c1 (stereo not drawn) [Example 218-3]
< 100 nM | CNCC(O)COc1cccc(-c2nc(NC3CCC[C@H]3O)c(C)c(-c3c(C)noc3C)n2)c1 (stereo partly drawn) [Example 219-1a]
< 100 nM | CNC[C@@H](O)COc1ccc(Cl)c(-c2nc(NC3CC(COC)C3)c(C)c(-c3c(C)noc3C)n2)c1 (stereo partly drawn) [Example 219-3]
< 100 nM | CNCC(O)COc1cccc(-c2nc(N[C@@H]3CCOC[C@@H]3OC)c(C)c(-c3c(C)noc3C)n2)c1 (stereo partly drawn) [Example 220-1a]
< 100 nM | CNC[C@@H](O)COc1ccc(Cl)c(-c2nc(-c3c(C)noc3C)c(C)c(N(C)C3CC(COC)C3)n2)c1 (stereo partly drawn) [Example 220-3]
< 100 nM | CNCC(O)COc1cccc(-c2nc(N[C@H]3C[C@H](C(=O)OC)C3)c(C)c(-c3c(C)noc3C)n2)c1 (stereo partly drawn) [Example 221-1a]
< 100 nM | CCOC(=O)N1CCC[C@H]1CCOc1nc(-c2cc(OC[C@H](O)CNC)ccc2Cl)nc(-c2c(C)noc2C)c1C [Example 221-3]
< 100 nM | CCO[C@H]1CCC[C@@H]1Nc1nc(-c2cc(OC[C@H](O)CNC)ccc2Cl)nc(-c2c(C)noc2C)c1C [Example 222-3]
< 100 nM | CNC[C@@H](O)COc1ccc(F)c(-c2nc(-c3c(C)noc3C)c(C)c(N3Cc4cnn(C)c4C3)n2)c1 [Example 223-3]

The remaining lines, values behind:

SMILES | IC50
CNC[C@@H](O)COc1ccc(Cl)c(-c2nc(NC3CC(F)C3)c(C)c(-c3c(C)noc3C)n2)c1 (stereo partly drawn) [Example 188-3] | < 100 nM
CCOC(=O)N1CCC(Nc2nc(-c3cccc(OCC(O)CNC)c3)nc(-c3c(C)noc3C)c2C)CC1 (stereo not drawn) [Example 189-1a] | < 100 nM
CNC[C@@H](O)COc1ccc(Cl)c(-c2nc(NC3CC(F)(F)C3)c(C)c(-c3c(C)noc3C)n2)c1 [Example 189-3] | < 100 nM
CCOC(=O)N1CCCC(Nc2nc(-c3cccc(OCC(O)CNC)c3)nc(-c3c(C)noc3C)c2C)C1 (stereo not drawn) [Example 190-1a] | < 100 nM
CNC[C@@H](O)COc1ccc(Cl)c(-c2nc(-c3c(C)noc3C)c(C)c(N3Cc4cncnc4C3)n2)c1 [Example 190-3] | < 100 nM
CCOC(=O)N1CCC(CNc2nc(-c3cccc(OCC(O)CNC)c3)nc(-c3c(C)noc3C)c2C)CC1 (stereo not drawn) [Example 191-1a] | < 100 nM
CCO[C@@H]1CCC[C@H]1Nc1nc(-c2cc(OC[C@H](O)CNC)ccc2F)nc(-c2c(C)noc2C)c1C [Example 191-3] | < 100 nM
CCS(=O)(=O)N1CCC(CNc2nc(-c3cccc(OCC(O)CNC)c3)nc(-c3c(C)noc3C)c2C)CC1 (stereo not drawn) [Example 192-1a] | < 100 nM
CNC[C@@H](O)COc1ccc(Cl)c(-c2nc(-c3c(C)noc3C)c(C)c(N3Cc4nc(C)sc4C3)n2)c1 [Example 192-3] | < 100 nM
CNCC(O)COc1cccc(-c2nc(NCC3CCCN(CC(F)F)C3)c(C)c(-c3c(C)noc3C)n2)c1 (stereo not drawn) [Example 193-1a] | < 100 nM
CCOC(=O)N1CCCC(CNc2nc(-c3cccc(OCC(O)CNC)c3)nc(-c3c(C)noc3C)c2C)C1 (stereo not drawn) [Example 194-1a] | < 100 nM
CNC[C@@H](O)COc1ccc(Cl)c(-c2nc(N[C@@H]3CCN(C)C[C@@H]3F)c(C)c(-c3c(C)noc3C)n2)c1 [Example 194-3] | < 100 nM
CNCC(O)COc1cccc(-c2nc(NC3CCN(CC(F)F)C3)c(C)c(-c3c(C)noc3C)n2)c1 (stereo not drawn) [Example 195-1a] | < 100 nM
CNC[C@@H](O)COc1ccc(Cl)c(-c2nc(N[C@H]3CCN(C4CC4)C[C@H]3F)c(Cl)c(-c3c(C)noc3C)n2)c1 [Example 195-3] | < 100 nM
CCOC(=O)N1CCC(Nc2nc(-c3cccc(OCC(O)CNC)c3)nc(-c3c(C)noc3C)c2C)C1 (stereo not drawn) [Example 196-1a] | < 100 nM
CNC[C@@H](O)COc1ccc(Cl)c(-c2nc(N[C@H]3CCO[C@H](C)C3)c(C)c(-c3c(C)noc3C)n2)c1 [Example 196-3] | < 100 nM
CCS(=O)(=O)N1CCC(Nc2nc(-c3cccc(OCC(O)CNC)c3)nc(-c3c(C)noc3C)c2C)C1 (stereo not drawn) [Example 197-1a] | < 100 nM
CNC[C@@H](O)COc1ccc(Cl)c(-c2nc(N[C@H]3CCO[C@H](C)C3)c(Cl)c(-c3c(C)noc3C)n2)c1 [Example 197-3] | < 100 nM
CNCC(O)COc1cccc(-c2nc(NC3CCCN(S(C)(=O)=O)C3)c(C)c(-c3c(C)noc3C)n2)c1 (stereo not drawn) [Example 198-1a] | < 100 nM
CNC[C@@H](O)COc1ccc(Cl)c(-c2nc(N[C@H]3CO[C@H](C)C3)c(C)c(-c3c(C)noc3C)n2)c1 [Example 198-3] | < 100 nM

SMILES | IC50
CNCC(O)COc1cccc(-c2nc(-c3c(C)noc3C)c(C)c(N3C[C@H](C)O[C@@H](C)C3)n2)c1 (stereo partly drawn) [Example 199-1a] | < 100 nM
CNC[C@@H](O)COc1ccc(Cl)c(-c2nc(-c3c(C)noc3C)c(C)c(N3CCc4ncccc43)n2)c1 [Example 199-3] | < 100 nM
CNCC(O)COc1cccc(-c2nc(-c3c(C)noc3C)c(C)c(N3CCOC(C)(C)C3)n2)c1 (stereo not drawn) [Example 200-1a] | < 100 nM
CNC[C@@H](O)COc1ccc(C(F)(F)F)c(-c2nc(NC3CCOCC3)c(C)c(-c3c(C)noc3C)n2)c1 [Example 200-3] | < 100 nM
CNCC(O)COc1cccc(-c2nc(NC3CCCN(C(=O)OC)C3)c(C)c(-c3c(C)noc3C)n2)c1 (stereo not drawn) [Example 201-1a] | < 100 nM
CNC[C@@H](O)COc1ccc(Cl)c(-c2nc(N[C@H]3CO[C@H](C)C3)c(Cl)c(-c3c(C)noc3C)n2)c1 [Example 201-3] | < 100 nM
CNCC(O)COc1cccc(-c2nc(NC3CCN(C(=O)OC)CC3)c(Cl)c(-c3c(C)noc3C)n2)c1 (stereo not drawn) [Example 202-1a] | < 100 nM
CNC[C@@H](O)COc1ccc(Cl)c(-c2nc(N[C@H]3CN(C(=O)OC)C[C@@H]3F)c(C)c(-c3c(C)noc3C)n2)c1 [Example 202-3] | < 100 nM
CNCC(O)COc1cccc(-c2nc(NC3CCCN(CC(F)F)C3)c(C)c(-c3c(C)noc3C)n2)c1 (stereo not drawn) [Example 203-1a] | < 100 nM
CNC[C@@H](O)COc1ccc(Cl)c(-c2nc(N[C@H]3CN(C4CC4)C[C@@H]3F)c(C)c(-c3c(C)noc3C)n2)c1 [Example 203-3] | < 100 nM
CCS(=O)(=O)N1CCCC(Nc2nc(-c3cccc(OCC(O)CNC)c3)nc(-c3c(C)noc3C)c2C)C1 (stereo not drawn) [Example 204-1a] | < 100 nM
CNC[C@@H](O)COc1ccc(C(F)(F)F)c(-c2nc(NC3CCN(C(=O)OC)CC3)c(C)c(-c3c(C)noc3C)n2)c1 [Example 204-3] | < 100 nM
CNCC(O)COc1cccc(-c2nc(NCC3CCN(CC(F)F)CC3)c(C)c(-c3c(C)noc3C)n2)c1 (stereo not drawn) [Example 205-1a] | < 100 nM
CNC[C@@H](O)COc1ccc(Cl)c(-c2nc(-c3c(C)noc3C)c(C)c(C3CC3)n2)c1 [Example 205-3] | < 100 nM
CCOC(=O)N1CCOC[C@@H]1CNc1nc(-c2cccc(OCC(O)CNC)c2)nc(-c2c(C)noc2C)c1C (stereo partly drawn) [Example 206-1a] | < 100 nM
CNC[C@@H](O)COc1ccc(Cl)c(-c2nc(-c3c(C)noc3C)c(C)c(N3CC(F)C3)n2)c1 [Example 206-3] | < 100 nM
CNCC(O)COc1cccc(-c2nc(NC3CCNC[C@H]3F)c(C)c(-c3c(C)noc3C)n2)c1 (stereo partly drawn) [Example 207-1a] | < 100 nM
CNC[C@@H](O)COc1ccc(Cl)c(-c2nc(-c3c(C)noc3C)c(C)c(N3CCC3C)n2)c1 (stereo partly drawn) [Example 207-3] | < 100 nM
CNCC(O)COc1cccc(-c2nc(NC3CCN(C(=O)OC(C)(C)C)C[C@H]3F)c(C)c(-c3c(C)noc3C)n2)c1 (stereo partly drawn) [Example 208-1a] | < 100 nM
